The values that follow come from patent US8318712B2, “Concentrated liquid thyroid hormone composition” (Intervet International B.V., priority 2006, dated 2012).

Each structure is given as a SMILES string.

For data set [1] the following is noted: as reported by Sigma-Aldrich; cited from earlier work.
A short description of data set [2]: Solubility of levothyroxine sodium, effect of pH. Type of data set: physicochemical. An excerpt: To have an acceptable biological pH and to improve the solubility of levothyroxine, the pH preferably is at least about 8, or at least about 9.
Data set [3] can be described thus: Solubility in water, effect of levothyroxine sodium particle size. Type of data set: physicochemical. The conditions noted are these: observed after 24 hours. On the procedure: The solubilities of batches of levothyroxine sodium micronized (D99<13 μm) and not micronized (D99<125 μm) were investigated. Preparations with several amounts of active ingredient in a fixed volume of water were observed after 24 hours. In both cases, less than 100 μg of levothyroxine sodium was soluble per ml of water.

Data set [4] can be described thus: Solubility in aqueous HPBCD solution, effect of complexing agent and copolymers. Type of data set: physicochemical. On the procedure: In an aqueous solution of 30% (w/w) HPBCD (Kleptose HPB, Roquette, France), 1000 μg/ml of levothyroxine sodium was dissolved. Applicants have observed that similar levothyroxine sodium solubilities may be achieved at lesser concentrations of HPBCD by adding a copolymer(s), such as, for example, sodium carboxymethyl cellulose (“CMC”), hydroxypropylmethylcellulose 4000 (“HPMC”), and/or povidone 12PF.
0.5% w/w of CCM and 15% (w/w) of HPBCD,
0.5% w/w of HPMC and 20% (w/w) of HPBCD, or
2% w/w of Povidone 12PF and 20% (w/w) of HPBCD.

The nature of data set [5]: Stability of levothyroxine sodium in aqueous HPBCD solution with or without stabilizers. Type of data set: physicochemical. The following applies: experiments of Tables 2-4. An excerpt:
The stability of levothyroxine sodium in an aqueous solution of HPBCD with or without stabilization was investigated.

Data set [6] can be described thus: Stability of levothyroxine sodium in aqueous HPBCD solutions with phosphate and carbonate buffers, sealed container. Type of data set: physicochemical. The following applies: experiments of Table 9. An excerpt: Applicants investigated the stability of levothyroxine sodium in aqueous HPBCD solutions with phosphate and carbonate buffers in a sealed container.

Regarding `CC(C)(N)CO` [AMP, 2-amino-2-methyl-1-propanol], the “effective pH range” value in data set [1] is listed as 8.7-10.4.

For `O=S(=O)(O)CCCCNC1CCCCC1` [CABS, 4-[cyclohexylamino]-1-butanesulfonic acid], the “effective pH range” value in data set [1] is given as 10.0-11.4.

As to `O=S(=O)(O)CCCNC1CCCCC1` [CAPS, N-cyclohexyl-3-aminopropanesulfonic acid], the “effective pH range” value in data set [1] is 9.7-11.1.

With `O=S(=O)(O)CC(O)CNC1CCCCC1` (stereo not shown) [CAPSO, 3-[cyclohexylamino]-2-hydroxy-1-propanesulphonic acid], in data set [1], the “effective pH range” value was 8.9-10.3.

As for `NCC(=O)O` [Glycine], in data set [1], the “effective pH range” value is 8.8-10.6 and the pKa2 is 9.78.

`CN` [Methylamine]: the “effective pH range” value in data set [1] was 9.5-11.5.

Take `NCCO` [ethanolamine]: in data set [1], the “effective pH range” value is listed as 6.0-12.0.

The molecule `N[C@@H](Cc1cc(I)c(Oc2cc(I)c(O)c(I)c2)c(I)c1)C(=O)[O-].[Na+]` [levothyroxine sodium] showed a solubility in data set [2] (pH 7.3) of 28 µg/mL. Further, the “solubility relative to pH 7.3” value in data set [2] (pH 9.4) came to 7 times greater; in data set [2] (pH 10.45) it was 11 times greater. Besides, the “levothyroxine sodium soluble per ml of water” value in data set [3] (micronized (D99<13 μm)) and in data set [3] (not micronized (D99<125 μm)) was “less than 100 μg per ml” in each case. Moreover, the levothyroxine sodium dissolved in data set [4] (aqueous solution of 30% (w/w) HPBCD) was found to be 1000 µg/mL; in data set [4] (aqueous solution, 0.5% w/w of CCM and 15% (w/w) of HPBCD), 1000 µg/mL; in data set [4] (aqueous solution, 0.5% w/w of HPMC and 20% (w/w) of HPBCD), 1000 µg/mL; in data set [4] (aqueous solution, 2% w/w of Povidone 12PF and 20% (w/w) of HPBCD) it was 1000 µg/mL. Moreover, the “compatibility with HPBCD in aqueous solution” value in data set [5] and in data set [6] was “did not exhibit incompatibility” throughout.
